According to patent US20240208992A1, “MACROCYCLES AS CFTR MODULATORS” (Idorsia Pharmaceuticals Ltd, priority 2021, published 2024):

Target: human F508del-CFTR (Homo sapiens, UniProt P13569, DEL508-508)
Assay: F508del-CFTR cell surface expression (corrector activity), DiscoveRx ß-galactosidase complementation chemiluminescence assay in recombinant U2OS cell line;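 note: U2OS cells co-expressing ProLink-tagged F508del-CFTR and a membrane-anchored enzyme acceptor, where more surface CFTR restores β-galactosidase activity measured by chemiluminescence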
Conditions: U2OS cell line, 16h compound incubation; for EC50: EC50, F508del-CFTR cell surface expression, geomean values; for Emax: U2OS, in relation to the Emax of the corrector lumacaftor (=100%), arithmetic mean values

human F508del-CFTR, sequence (P13569 with tags, fused parts or gaps DEL508-508): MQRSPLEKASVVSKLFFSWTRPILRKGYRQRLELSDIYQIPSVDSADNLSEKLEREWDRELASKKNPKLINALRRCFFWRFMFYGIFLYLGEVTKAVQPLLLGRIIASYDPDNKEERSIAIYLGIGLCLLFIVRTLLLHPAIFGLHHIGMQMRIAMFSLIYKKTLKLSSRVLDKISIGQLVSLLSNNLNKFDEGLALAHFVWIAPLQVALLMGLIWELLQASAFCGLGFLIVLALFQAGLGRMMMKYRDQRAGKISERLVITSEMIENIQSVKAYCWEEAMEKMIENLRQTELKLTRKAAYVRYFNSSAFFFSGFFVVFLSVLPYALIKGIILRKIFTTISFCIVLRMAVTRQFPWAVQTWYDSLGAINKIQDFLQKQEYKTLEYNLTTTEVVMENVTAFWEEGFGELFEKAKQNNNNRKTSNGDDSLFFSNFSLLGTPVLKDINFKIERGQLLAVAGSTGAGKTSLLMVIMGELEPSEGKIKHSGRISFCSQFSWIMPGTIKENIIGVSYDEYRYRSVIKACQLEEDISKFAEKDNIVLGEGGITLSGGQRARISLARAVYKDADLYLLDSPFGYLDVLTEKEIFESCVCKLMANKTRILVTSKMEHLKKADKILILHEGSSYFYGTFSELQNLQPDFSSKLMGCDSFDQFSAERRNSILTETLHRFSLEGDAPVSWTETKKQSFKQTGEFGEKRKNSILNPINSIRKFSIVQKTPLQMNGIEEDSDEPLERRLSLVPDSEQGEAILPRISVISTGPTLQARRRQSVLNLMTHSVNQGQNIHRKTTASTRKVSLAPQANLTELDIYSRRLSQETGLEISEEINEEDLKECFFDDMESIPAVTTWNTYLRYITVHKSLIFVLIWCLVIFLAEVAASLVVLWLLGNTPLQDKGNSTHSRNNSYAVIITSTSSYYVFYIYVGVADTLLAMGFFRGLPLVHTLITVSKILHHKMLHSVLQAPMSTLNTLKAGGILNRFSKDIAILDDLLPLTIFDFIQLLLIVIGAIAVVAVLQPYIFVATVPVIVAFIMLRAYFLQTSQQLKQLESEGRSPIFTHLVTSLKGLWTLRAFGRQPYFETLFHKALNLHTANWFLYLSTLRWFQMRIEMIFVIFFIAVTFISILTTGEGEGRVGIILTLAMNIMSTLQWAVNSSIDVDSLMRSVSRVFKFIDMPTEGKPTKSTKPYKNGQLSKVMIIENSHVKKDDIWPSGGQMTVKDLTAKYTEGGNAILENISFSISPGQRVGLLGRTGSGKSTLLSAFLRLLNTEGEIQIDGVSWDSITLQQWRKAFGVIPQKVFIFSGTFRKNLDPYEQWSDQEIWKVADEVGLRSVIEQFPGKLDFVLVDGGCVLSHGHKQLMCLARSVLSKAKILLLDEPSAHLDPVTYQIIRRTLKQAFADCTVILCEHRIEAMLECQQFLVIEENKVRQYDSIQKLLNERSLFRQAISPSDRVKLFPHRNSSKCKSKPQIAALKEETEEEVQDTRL

CC(C)C[C@H]1C(=O)N2CCCC[C@@H]2C(=O)N[C@H](Cc2ccccc2)COc2ccc3ncn(C)c3c2C(=O)N[C@H](C(=O)NCCc2ccc3c(c2)OCO3)CC(=O)N1C [Example 329, (8S,12S,18aR,21R)-N-(2-(benzo[d][1,3]dioxol-5-yl)ethyl)-21-benzyl-12-isobutyl-5,11-dimethyl-6,10,13,19-tetraoxo-6,7,8,9,10,11,12,13,16,17,18,18a,19,20,21,22-hexadecahydro-5H,15H-imidazo[4′,5′:5,6]benzo[1,2-p]pyrido[2,1-f][1]oxa[4,7,10,14]tetraazacycloheptadecine-8-carboxamide]
EC50: 796 nM | Emax: 198%

CC(C)C[C@H]1C(=O)N(CCC2CC3CCC2O3)CC(=O)N[C@H](Cc2ccccc2)COc2ccc3ccccc3c2C(=O)N[C@H](C(=O)NCCc2ccc3c(c2)OCO3)CC(=O)N1C (stereo partly drawn) [Example 330, (3S,7S,13R)-9-(2-(7-oxabicyclo[2.2.1]heptan-2-yl)ethyl)-N-(2-(benzo[d][1,3]dioxol-5-yl)ethyl)-13-benzyl-7-isobutyl-6-methyl-1,5,8,11-tetraoxo-1,2,3,4,5,6,7,8,9,10,11,12,13,14-tetradecahydronaphtho[1,2-p][1]oxa[4,7,10,14]tetraazacycloheptadecine-3-carboxamide]
EC50: 418 nM | Emax: 138%

CC(C)C[C@H]1C(=O)N(CCC2CCC3(CCC3)O2)CC(=O)N[C@H](Cc2ccccc2)COc2ccc3ccccc3c2C(=O)N[C@H](C(=O)NCCc2ccc3c(c2)OCO3)CC(=O)N1C (stereo partly drawn) [Example 331, (3S,7S,13R)-9-(2-(5-oxaspiro[3.4]octan-6-yl)ethyl)-N-(2-(benzo[d][1,3]dioxol-5-yl)ethyl)-13-benzyl-7-isobutyl-6-methyl-1,5,8,11-tetraoxo-1,2,3,4,5,6,7,8,9,10,11,12,13,14-tetradecahydronaphtho[1,2-p][1]oxa[4,7,10,14]tetraazacycloheptadecine-3-carboxamide]
EC50: 121 nM | Emax: 240%

CC(C)C[C@H]1C(=O)N(CCC2CCCO2)CC(=O)N[C@H](Cc2ccccc2)COc2ccc3ccccc3c2C(=O)N[C@H](C(=O)NCCc2ccc3c(c2)OCO3)CC(=O)N1C (stereo partly drawn) [Example 332, (3S,7S,13R)-N-(2-(benzo[d][1,3]dioxol-5-yl)ethyl)-13-benzyl-7-isobutyl-6-methyl-1,5,8,11-tetraoxo-9-(2-(tetrahydrofuran-2-yl)ethyl)-1,2,3,4,5,6,7,8,9,10,11,12,13,14-tetradecahydronaphtho[1,2-p][1]oxa[4,7,10,14]tetraazacycloheptadecine-3-carboxamide]
EC50: 309 nM | Emax: 183%

CC(C)C[C@H]1C(=O)N(CCC2CCCOC2)CC(=O)N[C@H](Cc2ccccc2)COc2ccc3ccccc3c2C(=O)N[C@H](C(=O)NCCc2ccc3c(c2)OCO3)CC(=O)N1C (stereo partly drawn) [Example 333, (3S,7S,13R)-N-(2-(benzo[d][1,3]dioxol-5-yl)ethyl)-13-benzyl-7-isobutyl-6-methyl-1,5,8,11-tetraoxo-9-(2-(tetrahydro-2H-pyran-3-yl)ethyl)-1,2,3,4,5,6,7,8,9,10,11,12,13,14-tetradecahydronaphtho[1,2-p][1]oxa[4,7,10,14]tetraazacycloheptadecine-3-carboxamide]
EC50: 345 nM | Emax: 182%

CC(C)C[C@H]1C(=O)N(CCC2CCC3(CCOCC3)CO2)CC(=O)N[C@H](Cc2ccccc2)COc2ccc3ccccc3c2C(=O)N[C@H](C(=O)NCCc2ccc3c(c2)OCO3)CC(=O)N1C (stereo partly drawn) [Example 334, (3S,7S,13R)-9-(2-(2,9-dioxaspiro[5.5]undecan-3-yl)ethyl)-N-(2-(benzo[d][1,3]dioxol-5-yl)ethyl)-13-benzyl-7-isobutyl-6-methyl-1,5,8,11-tetraoxo-1,2,3,4,5,6,7,8,9,10,11,12,13,14-tetradecahydronaphtho[1,2-p][1]oxa[4,7,10,14]tetraazacycloheptadecine-3-carboxamide]
EC50: 323 nM | Emax: 232%
